Assay results taken from US10757943B2, “Thidiazuron mixtures and uses thereof” (Valent BioSciences LLC, priority 2017, dated 2020).

What was measured:
Type in all cases: in vivo
[1] = test system: Concord grape vines; experiment: Bud break and shoot growth of potted dormant Concord grape vines in the greenhouse (Example 1); settings: for % bud break (vines with at least one bud break): hydrogen cyanamide 10,000 ppm, 17-0-0 197,100 ppm, 15-0-0 239,060 ppm, ACC 1,000 ppm; for Initial to 50% Bud Break: synchrony of bud break; for 50% Bud Break (DAT): time to 50% bud break
From the text: An aqueous 50% hydrogen cyanamide solution (Sigma-Aldrich, St. Louis, Mo. USA) was used as the source of hydrogen cyanamide. The commercial product, Dormex® contains 50% hydrogen cyanamide (w/v) in water.
Erger® was used as the source of 15-0-0 fertilizer. (Erger is a registered trademark of Valagro S.P.A., Italy and is available from Helena Chemical Company, Collierville, Tenn., USA). Erger® contains 15% total nitrogen as 3.1% ammoniacal nitrogen, 5.8% nitrate nitrogen and 6.1% urea nitrogen and 3.3% calcium derived from ammonium nitrate, calcium nitrate and urea. As used herein, the term “15-0-0 fertilizer” refers to the Erger® formulation above and all formulations described in International PCT application publication WO/2001/037653A2 by Valagro S.P.A., Italy, which is incorporated, herein, in its entirety.
CAN-17 was used as the source of 17-0-0 fertilizer. CAN-17 contains 17% total nitrogen as 4.6% ammonium nitrogen and […] nitrate nitrogen and 1.3% urea nitrogen and 8.8% calcium derived from ammonium nitrate and calcium nitrate. CAN-17 is available from J.R. Simplot Company (Boise, Id., USA).
To assess the ability of mixtures of the invention to promote and synchronize bud break these mixtures were applied to Concord grape vines and examined for bud break (initiation of growth) and subsequent shoot development. Specifically, 1 year old dormant bare rooted Concord grape vines were planted in pots containing Pro-Mix® BX potting soil (Pro-Mix is a registered trademark of and available from Premier Horticulture Ltd.) and pruned to 5 nodes on a single shoot. Aqueous solutions of thidiazuron, hydrogen cyanamide, 15-0-0 fertilizer, 17-0-0 fertilizer and 1-aminocyclopropane-1-carboxylic acid (“ACC”), and mixtures thereof were each applied individually or sequentially or co-applied to the first-year wood of separate Concord grape vines. Plants were grown in the greenhouse for 49 days and evaluated for percent of vines showing bud break, or relief from dormancy, periodically between 7 days and the conclusion of the experiment. […] At 49 days after treatment (DAT), the plants were sacrificed and measured for total number of flower clusters, total new shoot length, longest new shoot, combined new shoot fresh weight and combined new shoot dry weight. New shoot growth is the growth arising from the dormant buds not including the woody growth that was planted and gave rise to the new growth.
Synergy is calculated by the Abbott method: %Cexp=A+B−(AB/100), where % Cexp is the expected efficacy and in which A and B are the speed of bud break or shoot length or shoot weight given by the single active ingredients. If the ratio between the experimentally observed efficacy of the mixture Cobs and the expected efficacy of the mixture is greater than 1, synergistic interactions are present in the mixture” (Gisi, Synergistic Interaction of Fungicides in Mixtures, The American Phytopathological Society, 86:11, 1273-1279,1996).

[2] = test system: Red Flame seedless grape vines; experiment: Bud break and shoot length of field-grown Red Flame seedless grape vines (Example 2); settings: hydrogen cyanamide 10,000 ppm, thidiazuron 300 ppm, 17-0-0 197,100 ppm
Method: To assess the ability of mixtures of the invention to promote and synchronize bud break these mixtures were applied to field-grown Red Flame seedless grape vines and examined for bud break (initiation of growth) and subsequent shoot development. Thidiazuron, hydrogen cyanamide, 17-0-0 fertilizer, and mixtures thereof were each applied individually or sequentially (co-applied) to the separate spurs of Red Flame seedless grape vines. Plants were evaluated for bud break at 31 days after treatment, for percent bud break and total new shoot length at 48 days after treatment. Results of these evaluations can be seen below in Tables 4 and 5.

[3] = test system: Concord grape vines; experiment: Bud break and harvest weight of endo-dormant two-year-old Concord grape vines in the greenhouse (Example 4); settings: thidiazuron ppm and 17-0-0 % as in label, 15-0-0 65,880 ppm
From the text: Two-year-old Concord grape vines were purchased commercially. These vines had just lost their leaves and were shipped shortly after they were dug at the nursery. Thus, the vines had not fulfilled their chilling requirement and were considered endo-dormant. The vines were potted individually into one-gallon pots containing ProMix® BX immediately upon receipt and subsequently pruned back to the five proximal buds on the one-year old wood. Within two hours of pruning, treatment solutions were applied using a foam paint brush to the remaining one-year old wood, including the cut end from pruning. Two treatments, water and hydrogen cyanimide, which acted as negative and positive controls, respectively, were included in all studies.
Treatment solutions were made fresh in water and contained 1% (v/v) non-ionic surfactant. In all cases, two treatment solutions were applied to the plants. Where a single component was used for a treatment, the first application solution was water containing surfactant; in the cases where combination treatments were made to the same plant, the first treatment solution was allowed to dry prior to applying the second.
The treated plants were kept in a conventional greenhouse under supplemental lighting. Greenhouse conditions were 65:60° F. Day:Night temperature with a 16:8 hour photoperiod. Relief from dormancy was assessed every two days during the course of the study. Dormancy was considered relieved upon the emergence of a green bud. Both the number of ‘broken buds’ per plant and the date of relief of plants from dormancy were assessed. At the close of the study, new growth was removed from each of the treated plants and weighed.

[4] = 49 days post treatment, thidiazuron ppm as in label, other concentrations as in Table 1
[5] = thidiazuron 300 ppm unless label states other, other concentrations as in Table 1
[6] = thidiazuron 300 ppm unless label states other, other concentrations as in Table 1, listed as hydrogen cyanamide

## N#CN [Hydrogen Cyanamide, hydrogen cyanamide]
[1]; 7 DAT, thidiazuron 300 ppm unless label states other
  % bud break (vines with at least one bud break): 0%
[1]; 10 DAT, thidiazuron 300 ppm unless label states other
  % bud break (vines with at least one bud break): 11.1%
[1]; 13 DAT, thidiazuron 300 ppm unless label states other
  % bud break (vines with at least one bud break): 44.4%
[1]; 15 DAT, thidiazuron 300 ppm unless label states other
  % bud break (vines with at least one bud break): 66.7%
[1]; 17 DAT, thidiazuron 300 ppm unless label states other
  % bud break (vines with at least one bud break): 77.8%
[1]; 20 DAT, thidiazuron 300 ppm unless label states other
  % bud break (vines with at least one bud break): 88.9%
[1]; 22 DAT, thidiazuron 300 ppm unless label states other
  % bud break (vines with at least one bud break): 88.9%
[1]; 24 DAT, thidiazuron 300 ppm unless label states other
  % bud break (vines with at least one bud break): 88.9%
[1]; 27 DAT, thidiazuron 300 ppm unless label states other
  % bud break (vines with at least one bud break): 88.9%
[1]; 29 DAT, thidiazuron 300 ppm unless label states other
  % bud break (vines with at least one bud break): 88.9%
[1]; 31 DAT, thidiazuron 300 ppm unless label states other
  % bud break (vines with at least one bud break): 88.9%
[1]; 34 DAT, thidiazuron 300 ppm unless label states other
  % bud break (vines with at least one bud break): 100.0%
[1]; 36 DAT, thidiazuron 300 ppm unless label states other
  % bud break (vines with at least one bud break): 100.0%
[1]; 38 DAT, thidiazuron 300 ppm unless label states other
  % bud break (vines with at least one bud break): 100.0%
[1]; 41 DAT, thidiazuron 300 ppm unless label states other
  % bud break (vines with at least one bud break): 100.0%
[1]; 43 DAT, thidiazuron 300 ppm unless label states other
  % bud break (vines with at least one bud break): 100.0%
[1]; 49 DAT, thidiazuron 300 ppm unless label states other
  % bud break (vines with at least one bud break): 100.0%
[1]; [4]
  Combined Shoot Dry Weight: 9.0 g
  Combined Shoot Fresh Weight: 39.3 g
  Longest Shoot Length: 83.8 cm
  Total # of Flower Clusters: 0.0
  Total Shoot Length: 129.8 cm
[1]; combined shoot dry weight at 49 DAT normalised by days from 25% bud break to harvest
  Dry Weight (g)/25% Bud Break to Harvest (d): 0.24 g/day
[1]; combined shoot dry weight at 49 DAT normalised by days from 50% bud break to harvest
  Dry Weight (g)/50% Bud Break to Harvest (d): 0.26 g/day
[1]; combined shoot fresh weight at 49 DAT normalised by days from 50% bud break to harvest
  Fresh Weight (g)/50% Bud Break to Harvest (d): 1.12 g/day
[1]; harvest at day 49, thidiazuron 300 ppm unless label states other, other concentrations as in Table 1
  50% Bud Break to Harvest: 35 days
[1]; [5]
  Initial to 50% Bud Break: 5 days
  50% Bud Break (DAT): 14 DAT
[1]; [6]
  Initial to 50% Bud Break: ≤ 5 days
  50% Bud Break (DAT): ≤ 14 DAT
[1]; time to 25% bud break, thidiazuron 300 ppm unless label states other, other concentrations as in Table 1
  25% Bud Break (DAT): 11 DAT
[2]; 31 days after treatment
  Broken Buds per plant (Average Buds Broken per Spur): 0.53
[2]; 48 days after treatment
  % Broken Buds: 58.8%
  Total Shoot Length: 25.2
[3]; new growth at close of study
  Fresh Shoot Weight (g)/Plant: 31.49 g
[3]
  50% Bud Break (DAT): 16 DAT
  100% Bud Break (DAT): 33 DAT
  Initial to 50% Bud Break: 2
  Number of Buds Broken/Plant: 1.5
